# Molecular target: T1, human Nav1.8 (Homo sapiens, UniProt Q9Y5Y9)
# T1 construct: expressed in transfected cells; host or cells: HEK293 (HEK293-Nav1.8)
# Experiment: Nav1.8 sodium channels assay, QPatch 48 HTX electrophysiology in HEK293-Nav1.8 cells
# Format: cell-based
# Conditions: at least one set of experimental runs; read-out: average pIC50 value against Nav1.8 (converted)
# Protocol: Human embryonic kidney […] cells (HEK293) expressing human Nav1.8, human Navβ1 and human TREK1 (HEK293-Nav1.8) were grown at 37° C., 5% CO2 in 150 cm^2 flasks. HEK293-Nav1.8 were passaged every 2-3 days when confluency reached 80-90% in to T175 cell culture flasks.
# Pharmacological assessment of the invention was performed using HEK293-Nav1.8 in combination with an assay developed on the QPatch 48 HTX electrophysiological system. HEK293-Nav1.8 were prepared on the day of use by removing culture media, washing in DPBS, adding Accutase (2 ml to cover the surface, aspirate 1 ml then 1.5 min at 37° C.) followed by addition of CHO-SFM II to stop the enzyme digestion and in order to obtain a suspension of 3×10^6 cell/mL.
# The invention was prepared in an extracellular solution of the following composition (in mM) NaCl 145, KCl 4, CaCl2 2, MgCl 2, HEPES 1, Glucose 10, pH 7.4 with NaOH Osmolality 300 mOsM/L. The intracellular solution was used of the following composition (in mM) CsF 115, CsCl 20, NaCl 5, EGTA 10, HEPES 10, Sucrose 20, pH 7.2 with CsOH Osmolality 310 mOsm/L.
# Utilizing the voltage-clamp mode in the QPatch 48 HTX system a half inactivation state voltage protocol (V1/2) was used to determine pharmacological activity of the invention at Nav1.8 ion channels. A V1/2 protocol was utilized with the following voltage steps: a holding voltage of −100 mV was established followed by a 20 ms voltage step to 0 mV (P1), followed by an inactivating voltage step at −46 mV for 8 seconds, followed by a step to −100 mV for 20 ms, before a 20 ms step to 0 mV (P2) before returning to the holding voltage of −100 mV. This voltage protocol was repeated at a frequency of 0.07 Hz., current magnitude was quantified at the P2 step throughout the recording. Inhibition of the measured current amplitude with the invention was analyzed by fitting a 6-8 point dose-response curve allowing determination of the fifty percent inhibition concentration (IC50). Within the QPatch HTX software, P2 current was normalized according to measurements made at baseline after compound and after positive reference compound and fit to the following equation: […]
# To assess current run-down over the course of the experiment vehicle-only wells were utilized and the normalized current with vehicle-only (n.IVEH) was determined. To correct the compound response for run-down, the currents were correct according the following formula: […]
# Compounds of the invention are tested for activity against Nav1. 8 sodium channels in the above assay.
# T1 sequence (Q9Y5Y9 whole entry): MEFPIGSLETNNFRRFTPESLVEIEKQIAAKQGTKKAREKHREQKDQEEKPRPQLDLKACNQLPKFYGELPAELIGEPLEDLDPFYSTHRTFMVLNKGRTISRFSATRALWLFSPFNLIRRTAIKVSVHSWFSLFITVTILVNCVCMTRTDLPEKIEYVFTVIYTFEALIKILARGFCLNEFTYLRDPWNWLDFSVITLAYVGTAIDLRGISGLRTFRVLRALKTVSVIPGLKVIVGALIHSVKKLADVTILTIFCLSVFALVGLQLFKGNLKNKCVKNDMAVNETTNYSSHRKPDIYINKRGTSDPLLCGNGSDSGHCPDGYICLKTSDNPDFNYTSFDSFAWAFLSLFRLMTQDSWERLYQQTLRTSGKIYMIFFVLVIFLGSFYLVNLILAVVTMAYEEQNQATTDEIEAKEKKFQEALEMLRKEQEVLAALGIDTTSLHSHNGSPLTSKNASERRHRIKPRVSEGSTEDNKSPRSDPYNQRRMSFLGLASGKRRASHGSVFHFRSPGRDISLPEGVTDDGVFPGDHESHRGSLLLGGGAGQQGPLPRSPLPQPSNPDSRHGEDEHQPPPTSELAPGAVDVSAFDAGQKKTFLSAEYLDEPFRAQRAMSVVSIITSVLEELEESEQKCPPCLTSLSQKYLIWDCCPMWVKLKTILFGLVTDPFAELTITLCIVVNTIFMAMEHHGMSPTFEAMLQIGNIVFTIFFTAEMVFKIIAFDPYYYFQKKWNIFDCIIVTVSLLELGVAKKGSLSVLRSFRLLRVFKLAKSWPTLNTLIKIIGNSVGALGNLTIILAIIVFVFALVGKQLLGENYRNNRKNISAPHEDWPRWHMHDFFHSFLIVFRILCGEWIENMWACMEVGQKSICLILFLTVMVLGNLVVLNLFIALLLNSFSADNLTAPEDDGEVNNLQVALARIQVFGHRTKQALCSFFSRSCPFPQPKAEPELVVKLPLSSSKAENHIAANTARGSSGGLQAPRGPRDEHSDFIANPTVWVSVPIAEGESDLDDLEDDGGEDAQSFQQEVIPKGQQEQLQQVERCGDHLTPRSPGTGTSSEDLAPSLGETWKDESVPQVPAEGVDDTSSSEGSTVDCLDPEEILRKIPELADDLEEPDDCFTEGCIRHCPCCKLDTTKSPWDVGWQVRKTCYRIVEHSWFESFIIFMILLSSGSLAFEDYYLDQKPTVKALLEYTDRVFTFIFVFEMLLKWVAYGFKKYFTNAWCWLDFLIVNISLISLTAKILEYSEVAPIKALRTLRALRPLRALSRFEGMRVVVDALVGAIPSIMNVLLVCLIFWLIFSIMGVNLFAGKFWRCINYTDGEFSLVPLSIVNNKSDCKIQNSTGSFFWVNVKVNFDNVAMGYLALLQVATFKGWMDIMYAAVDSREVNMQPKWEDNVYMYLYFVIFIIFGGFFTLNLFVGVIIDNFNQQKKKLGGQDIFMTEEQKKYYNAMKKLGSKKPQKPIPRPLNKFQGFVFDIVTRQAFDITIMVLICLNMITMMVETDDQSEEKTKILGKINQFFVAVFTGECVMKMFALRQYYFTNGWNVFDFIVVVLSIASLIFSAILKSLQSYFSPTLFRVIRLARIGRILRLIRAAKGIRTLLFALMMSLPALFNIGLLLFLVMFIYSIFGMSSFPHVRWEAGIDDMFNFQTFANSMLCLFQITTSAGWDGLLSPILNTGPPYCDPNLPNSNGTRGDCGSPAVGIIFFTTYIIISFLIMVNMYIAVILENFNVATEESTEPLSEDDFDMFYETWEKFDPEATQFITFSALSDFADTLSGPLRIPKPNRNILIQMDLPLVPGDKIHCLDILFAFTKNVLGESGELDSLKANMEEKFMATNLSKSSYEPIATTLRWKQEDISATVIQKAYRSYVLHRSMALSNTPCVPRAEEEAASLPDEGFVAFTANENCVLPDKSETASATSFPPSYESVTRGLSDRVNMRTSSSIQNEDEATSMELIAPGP
# T1 sequence (Q07699 19-218 partner): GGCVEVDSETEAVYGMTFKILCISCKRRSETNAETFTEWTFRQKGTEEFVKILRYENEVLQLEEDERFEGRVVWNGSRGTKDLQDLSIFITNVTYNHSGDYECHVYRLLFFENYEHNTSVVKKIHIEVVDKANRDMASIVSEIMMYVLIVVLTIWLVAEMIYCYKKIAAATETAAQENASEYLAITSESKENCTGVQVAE
row,SMILES,IC50
1,"Cc1cc(F)ccc1N1CN(c2ccc(=O)[nH]c2C)C(=O)c2ccccc21 [Example 52, 1-(4-fluoro-2-methylphenyl)-3-(2-methyl-6-oxo-1,6-dihydropyridin-3-yl)-2,3-dihydroquinazolin-4(1H)-one]",≤ 100 nM
2,"Cc1cc(N2CN(c3ccc(F)cc3C)c3cc(C(F)(F)F)ccc3C2=O)cc(=O)[nH]1 [Example 53, 1-(4-fluoro-2-methylphenyl)-3-(6-methyl-2-oxo-1,2-dihydropyridin-4-yl)-7-(trifluoromethyl)-2,3-dihydroquinazolin-4(1H)-one]",794 to 7940 nM
3,"Cc1c[nH]c(=O)cc1N1CN(c2ccc(F)cc2C)c2cc(C(F)(F)F)ccc2C1=O [Example 54, 1-(4-fluoro-2-methylphenyl)-3-(5-methyl-2-oxo-1,2-dihydropyridin-4-yl)-7-(trifluoromethyl)-2,3-dihydroquinazolin-4(1H)-one]",794 to 7940 nM
4,"Cc1cc(F)ccc1N1CN(c2cc[nH]c(=O)c2C)C(=O)c2ccc(C(F)(F)F)cc21 [Example 55, 1-(4-fluoro-2-methylphenyl)-3-(3-methyl-2-oxo-1,2-dihydropyridin-4-yl)-7-(trifluoromethyl)-2,3-dihydroquinazolin-4(1H)-one]",794 to 7940 nM
5,"Cc1cc(F)ccc1N1CN(c2ccc(=O)[nH]c2C)C(=O)c2ccc(OC(F)(F)F)cc21 [Example 56, 1-(4-fluoro-2-methylphenyl)-3-(2-methyl-6-oxo-1,6-dihydropyridin-3-yl)-7-(trifluoromethoxy)-2,3-dihydroquinazolin-4(1H)-one]",≤ 100 nM
6,"Cc1ccc2c(c1)N(c1ccc(F)cc1C)CN(c1ccc(=O)[nH]c1C)C2=O [Example 57, 1-(4-fluoro-2-methylphenyl)-7-methyl-3-(2-methyl-6-oxo-1,6-dihydropyridin-3-yl)-2,3-dihydroquinazolin-4(1H)-one]",≤ 100 nM
7,"Cc1cc(F)ccc1N1CN(c2ncc(=O)[nH]c2C)C(=O)c2ccc(C(F)(F)F)cc21 [Example 58, 1-(4-fluoro-2-methylphenyl)-3-(3-methyl-5-oxo-4,5-dihydropyrazin-2-yl)-7-(trifluoromethyl)-2,3-dihydroquinazolin-4(1H)-one]",126 to 631 nM
8,"Cc1cc(F)ccc1N1CN(c2cc(=O)[nH]c(=O)[nH]2)C(=O)c2ccc(C(F)(F)F)cc21 [Example 59, 6-(1-(4-fluoro-2-methylphenyl)-4-oxo-7-(trifluoromethyl)-1,4-dihydroquinazolin-3(2H)-yl)pyrimidine-2,4(1H,3H)-dione]",794 to 7940 nM
9,"CCc1cc(F)ccc1N1CN(c2ccc(=O)[nH]c2C)C(=O)c2cc(C(F)(F)F)ccc21 [Example 60, 1-(2-ethyl-4-fluorophenyl)-3-(2-methyl-6-oxo-1,6-dihydropyridin-3-yl)-6-(trifluoromethyl)-2,3-dihydroquinazolin-4(1H)-one]",≤ 100 nM
10,"Cc1cc(F)ccc1N1CN(c2c[nH]c(=O)nc2C)C(=O)c2cc(Cl)ccc21 [Example 61, 6-chloro-1-(4-fluoro-2-methylphenyl)-3-(4-methyl-2-oxo-1,2-dihydropyrimidin-5-yl)-2,3-dihydroquinazolin-4(1H)-one]",≤ 100 nM
11,"Cc1cc(=O)[nH]c(C)c1N1CN(c2ccc(F)cc2C(C)C)c2cc(C(F)(F)F)ccc2C1=O [Example 62, 3-(2,4-dimethyl-6-oxo-1,6-dihydropyridin-3-yl)-1-(4-fluoro-2-isopropylphenyl)-7-(trifluoromethyl)-2,3-dihydroquinazolin-4(1H)-one]",794 to 7940 nM
12,Cc1[nH]c(=O)ccc1N1CN(c2ccc(F)cc2C(C)C)c2ncc(C(F)(F)F)cc2C1=O [Example 63],≤ 100 nM
13,"CCc1[nH]c(=O)ccc1N1CN(c2ccc(F)cc2C)c2ccc(C(F)(F)F)cc2C1=O [Example 64, 3-(2-ethyl-6-oxo-1,6-dihydropyridin-3-yl)-1-(4-fluoro-2-methylphenyl)-6-(trifluoromethyl)-2,3-dihydroquinazolin-4(1H)-one]",≤ 100 nM
14,"Cc1cc(F)ccc1N1CN(c2ccc(=O)[nH]c2C)C(=O)c2ccc(N(C)C)cc21 [Example 65, 7-(dimethylamino)-1-(4-fluoro-2-methylphenyl)-3-(2-methyl-6-oxo-1,6-dihydropyridin-3-yl)-2,3-dihydroquinazolin-4(1H)-one]",≤ 100 nM
15,"Cc1cc(F)ccc1N1CN(c2ccc(=O)[nH]c2C)C(=O)c2ccc(Cl)cc21 [Example 66, 7-chloro-1-(4-fluoro-2-methylphenyl)-3-(2-methyl-6-oxo-1,6-dihydropyridin-3-yl)-2,3-dihydroquinazolin-4(1H)-one]",≤ 100 nM
16,"CNc1ccc2c(c1)N(c1ccc(F)cc1C)CN(c1ccc(=O)[nH]c1C)C2=O [Example 67, 1-(4-fluoro-2-methylphenyl)-3-(2-methyl-6-oxo-1,6-dihydropyridin-3-yl)-7-(methylamino)-2,3-dihydroquinazolin-4(1H)-one]",126 to 631 nM
17,"CCOc1cc(F)ccc1N1CN(c2ccc(=O)[nH]c2C)C(=O)c2cc(Cl)ccc21 [Example 68, 6-chloro-1-(2-ethoxy-4-fluorophenyl)-3-(2-methyl-6-oxo-1,6-dihydropyridin-3-yl)-2,3-dihydroquinazolin-4(1H)-one]",126 to 631 nM
18,"Cc1ccc2c(c1)N(c1ccc(F)cc1C(C)C)CN(c1ccc(=O)[nH]c1C)C2=O [Example 69, 1-(4-fluoro-2-isopropylphenyl)-7-methyl-3-(2-methyl-6-oxo-1,6-dihydropyridin-3-yl)-2,3-dihydroquinazolin-4(1H)-one]",≤ 100 nM
19,"Cc1cc(F)ccc1N1CN(c2ccc(=O)[nH]c2C)C(=O)c2cc(F)c(C(F)F)cc21 [Example 70, 7-(difluoromethyl)-6-fluoro-1-(4-fluoro-2-methylphenyl)-3-(2-methyl-6-oxo-1,6-dihydropyridin-3-yl)-2,3-dihydroquinazolin-4(1H)-one]",≤ 100 nM
20,"Cc1cc(F)ccc1N1CN(c2ccc(=O)[nH]c2C)C(=O)c2cc(F)c(C)nc21 [Example 71, 6-fluoro-1-(4-fluoro-2-methylphenyl)-7-methyl-3-(2-methyl-6-oxo-1,6-dihydropyridin-3-yl)-2,3-dihydropyrido[2,3-d]pyrimidin-4(1H)-one]",126 to 631 nM
21,"Cc1cc(F)ccc1N1CN(c2ccc(=O)[nH]c2C)C(=O)c2cc(Cl)c(C)nc21 [Example 72, 6-chloro-1-(4-fluoro-2-methylphenyl)-7-methyl-3-(2-methyl-6-oxo-1,6-dihydropyridin-3-yl)-2,3-dihydropyrido[2,3-d]pyrimidin-4(1H)-one]",≤ 100 nM
22,"Cc1cc(F)ccc1N1CN(c2ccc(=O)[nH]c2C)C(=O)c2cc(Cl)c(Cl)nc21 [Example 73, 6,7-dichloro-1-(4-fluoro-2-methylphenyl)-3-(2-methyl-6-oxo-1,6-dihydropyridin-3-yl)-2,3-dihydropyrido[2,3-d]pyrimidin-4(1H)-one]",≤ 100 nM
23,"Cc1cc(OC(F)(F)F)ccc1N1CN(c2ccc(=O)[nH]c2C)C(=O)c2c1ccc(Cl)c2F [Example 74, 6-chloro-5-fluoro-1-(2-methyl-4-(trifluorometh-oxy)phenyl)-3-(2-methyl-6-oxo-1,6-dihydropyridin-3-yl)-2,3-dihydroquinazolin-4(1H)-one]",≤ 100 nM
24,"Cc1cc(F)ccc1N1CN(c2ccc(=O)[nH]c2C)C(=O)c2cc(C#N)ccc21 [Example 75, 1-(4-fluoro-2-methylphenyl)-3-(2-methyl-6-oxo-1,6-dihydropyridin-3-yl)-4-oxo-1,2,3,4-tetrahydroquin-azoline-6-carbonitrile]",126 to 631 nM
25,"Cc1[nH]c(=O)ccc1N1CN(c2ccc(F)cc2C(C)C)c2ccc(Cl)cc2C1=O [Example 76, 6-chloro-1-(4-fluoro-2-isopropylphenyl)-3-(2-methyl-6-oxo-1,6-dihydropyridin-3-yl)-2,3-dihydroquinazolin-4(1H)-one]",≤ 100 nM
26,"Cc1[nH]c(=O)ccc1N1CN(c2ccc(F)c(O)c2C)c2cc(C(F)(F)F)ccc2C1=O [Example 77, 1-(4-fluoro-3-hydroxy-2-methylphenyl)-3-(2-methyl-6-oxo-1,6-dihydropyridin-3-yl)-7-(trifluoromethyl)-2,3-dihydroquinazolin-4(1H)-one]",126 to 631 nM
27,"Cc1cc(F)ccc1N1CN(c2ccc(=O)[nH]c2)C(=O)c2c1ccc(Cl)c2F [Example 78, 6-chloro-5-fluoro-1-(4-fluoro-2-methylphenyl)-3-(6-oxo-1,6-dihydropyridin-3-yl)-2,3-dihydroquinazolin-4(1H)-one]",126 to 631 nM
